From PubChem BioAssay (NCI) come the findings set out here.

Holding throughout (experiment): DTP human tumour cell line panel, 48 h
The test system of experiment [1] is DU-145 prostate.
Experiment [2] relates to HS 578T breast.
Experiment [3] has as its system MCF7 breast.
Experiment [4] relates to MDA-MB-231 breast.
The subject of experiment [5] is MDA-MB-435.
Experiment [6] concerns NCI/ADR-RES ovarian.
For experiment [7], the system named is T-47D breast.

Molecules are shown by their SMILES.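 Values below derive from 48-hour exposures of cells grown in 96-well plates, with endpoints linearly interpolated between the two concentrations bracketing the appropriate inhibition level. GI50 is the concentration that inhibits growth by half. TGI: concentration producing complete growth inhibition.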

What is called GI50 is the concentration giving 50% growth inhibition. A word on the TGI: it is the concentration giving total growth inhibition. A higher TGI goes with lower sensitivity of the cells. Turning to `C#Cc1cccc(Nc2ncnc3cc(OC)c(OCCCCCCC(=O)NO)cc23)c1`, the 50% growth inhibitory concentration (GI50) was 0.136 µM in experiment [1]; 0.086 µM in experiment [2]; 0.19 µM in experiment [3]; 0.274 µM in experiment [4]; 0.145 µM in experiment [5]; 0.917 µM in experiment [6]. Moreover, the GI50 in experiment [7] is 0.0465 µM. The TGI is 4.45 µM in experiment [1]; 1.04 µM in experiment [2]; 3.5 µM in experiment [3]; 2.29 µM in experiment [4]; 0.528 µM in experiment [5]; 6.91 µM in experiment [6]. For the same compound, the total growth inhibition concentration (TGI) in experiment [7] stood at 0.495 µM.
`CC(SC(C)C(=O)N/N=C/c1cccc(Cl)c1)C(=O)N/N=C\c1cccc(Cl)c1` (stereo not given): the GI50 in experiment [1] is 6.58 µM; in experiment [2], 5.62 µM; in experiment [3], 5.16 µM; in experiment [4], 5.87 µM; in experiment [5] it was 5.02 µM; in experiment [6], 71.7 µM. In experiment [7], the GI50 was 23 µM. Also, the TGI in experiment [1] was 25.2 µM; in experiment [2] it was 25.4 µM; in experiment [3] it was 18.6 µM; in experiment [4] it was 28.8 µM; in experiment [5], 23.9 µM; in experiment [6] it was more than 100 µM. In experiment [7], the TGI stood at 93.8 µM.
On to `Cc1ccc(C(SCC(N)C(=O)O)(c2ccccc2)c2ccc(C)cc2)cc1` (stereo not given), for which the GI50 in experiment [1] was 0.287 µM; in experiment [2], 0.0485 µM; in experiment [3], 0.0524 µM; in experiment [4], 0.468 µM; in experiment [5] it was 0.0323 µM; in experiment [6], 1.14 µM. For the same compound, the GI50 in experiment [7] was 0.333 µM. Also, the TGI in experiment [1] stood at 2.66 µM; in experiment [2], 2.17 µM; in experiment [3], 15.4 µM; in experiment [4], 16.1 µM; in experiment [5], 0.14 µM; in experiment [6], 11.6 µM. Also, the TGI in experiment [7] was 16.9 µM.
In the case of `Clc1coc2nc3ccccc3c(Nc3ccc4c(c3)OCO4)c12`, the GI50 is 2.58 µM in experiment [1]; 1.89 µM in experiment [2]; 1.81 µM in experiment [3]; 0.974 µM in experiment [4]; 0.62 µM in experiment [5]; 0.512 µM in experiment [6]. In experiment [7], the GI50 was 13.4 µM. Besides, the TGI in experiment [1] is 17.2 µM; in experiment [2], 5.37 µM; in experiment [3] it was more than 100 µM; in experiment [4], 81.3 µM; in experiment [5], 1.46 µM; in experiment [6], 8.01 µM. For the same compound, the TGI in experiment [7] was more than 100 µM.
In the case of `C/C(=C\CCc1ccoc1)CC/C=C(\C)CCCC1=CC(=O)OC1`, the GI50 was 24.8 µM in experiment [1]; 3.26 µM in experiment [2]; 3.47 µM in experiment [3]; 5.97 µM in experiment [4]; 5.76 µM in experiment [5]; 5.42 µM in experiment [6]. Further, the GI50 in experiment [7] was 2.27 µM. Moreover, the TGI in experiment [1] was more than 100 µM; in experiment [2], 36 µM; in experiment [3], 36.9 µM; in experiment [4], 28.9 µM; in experiment [5], 34.1 µM; in experiment [6] it was 31 µM. Moreover, the TGI in experiment [7] turned out to be 22.9 µM.
Regarding `CNCCNc1c2c(c(NCCNC)c3c(CN(C)C)c[nH]c13)C(=O)c1ccccc1C2=O`, the GI50 in experiment [1] is 1.53 µM; in experiment [2], 1.7 µM; in experiment [3] it was 0.922 µM; in experiment [4] it was 0.486 µM; in experiment [5] it was 2.5 µM; in experiment [6], 12.7 µM. The GI50 in experiment [7] was 32 µM. In addition, the total growth inhibition concentration (TGI) in experiment [1] stood at 5.93 µM; in experiment [2], 7.92 µM; in experiment [3], 6.7 µM; in experiment [4], 8.31 µM; in experiment [5], 10.7 µM; in experiment [6], 40.2 µM. Moreover, the total growth inhibition concentration (TGI) in experiment [7] is more than 57.1 µM.
Take `Cc1nnc(S(=O)(=O)c2ccc(N=Nc3c(N)nc(N)nc3N)cc2)s1`: the concentration for total growth inhibition (TGI) in experiment [1], in experiment [2], in experiment [3], in experiment [4], in experiment [5] and in experiment [6] was more than 100 µM in each case. Moreover, the TGI in experiment [7] is more than 100 µM.
As to `Cc1c2cccnc2c(C)c2c1c1cc(CO)ccc1n2C`, the GI50 in experiment [1] is 3.09 µM; in experiment [2] it was 3.38 µM; in experiment [3], 0.501 µM; in experiment [4], 2.61 µM; in experiment [5], 3.06 µM; in experiment [6], 1.3 µM. The GI50 in experiment [7] was 0.989 µM. Also, the TGI in experiment [1] was determined as 11.9 µM; in experiment [2], 34.5 µM; in experiment [3], 12.7 µM; in experiment [4] it was 13.2 µM; in experiment [5] it was 13.7 µM; in experiment [6], 8.51 µM. Further, the TGI in experiment [7] was 4.97 µM.
